# Activity calls are given as the source filed them. No cut-off for these calls is given here.
# Key:
# Pseudomonas aeruginosa [1] = assay: Potentiation of meropenem-induced antibacterial activity against VIM2 carbapenemase producing multidrug-resistant Pseudomonas aeruginosa 13 clinical isolate assessed as MIC of meropenem at 1:8 meropenem:compound ratio by broth microtiter dilution method; format: functional
# Klebsiella oxytoca [2] = assay: Potentiation of meropenem-induced antibacterial activity against VIM4 carbapenemase producing multidrug-resistant Klebsiella oxytoca 95 clinical isolate assessed as MIC of meropenem at 1:8 meropenem:compound ratio by broth microtiter dilution method; format: functional
# Pseudomonas aeruginosa [3] = assay: Potentiation of meropenem-induced antibacterial activity against VIM2 carbapenemase producing multidrug-resistant Pseudomonas aeruginosa GR58 clinical isolate assessed as MIC of meropenem at 1:8 meropenem:compound ratio by broth microtiter dilution method; format: functional
# Klebsiella pneumoniae [4] = assay: Potentiation of meropenem-induced antibacterial activity against VIM1 carbapenemase producing multidrug-resistant Klebsiella pneumoniae GR54 clinical isolate at 1:8 meropenem:compound ratio by checkerboard method; format: functional
# Enterobacter cloacae = assay: Potentiation of meropenem-induced antibacterial activity against VIM4 carbapenemase producing multidrug-resistant Enterobacter cloacae 102 clinical isolate at 1:8 meropenem:compound ratio by checkerboard method; format: functional
# Klebsiella pneumoniae [5] = assay: Antibacterial activity against VIM4 carbapenemase producing multidrug-resistant Klebsiella pneumoniae 128 clinical isolate up to 512 mg/L by broth microtiter dilution method; format: functional, organism-based
# Pseudomonas aeruginosa [6] = assay: Potentiation of meropenem-induced antibacterial activity against VIM2 carbapenemase producing multidrug-resistant Pseudomonas aeruginosa 47 clinical isolate assessed as MIC of meropenem at 1:8 meropenem:compound ratio by broth microtiter dilution method; format: functional
# Klebsiella pneumoniae [7] = assay: Potentiation of meropenem-induced antibacterial activity against VIM4 carbapenemase producing multidrug-resistant Klebsiella pneumoniae 128 clinical isolate assessed as MIC of meropenem at 1:8 meropenem:compound ratio by broth microtiter dilution method; format: functional
# Pseudomonas aeruginosa [8] = assay: Antibacterial activity against VIM2 carbapenemase producing multidrug-resistant Pseudomonas aeruginosa 6 clinical isolate up to 512 mg/L by broth microtiter dilution method; format: functional, organism-based
# Klebsiella oxytoca [9] = assay: Potentiation of meropenem-induced antibacterial activity against VIM4 carbapenemase producing multidrug-resistant Klebsiella oxytoca 126 clinical isolate at 1:8 meropenem:compound ratio by checkerboard method; format: functional
# Pseudomonas aeruginosa [10] = assay: Antibacterial activity against VIM2 carbapenemase producing multidrug-resistant Pseudomonas aeruginosa 11 clinical isolate up to 512 mg/L by broth microtiter dilution method; format: functional, organism-based
# Pseudomonas aeruginosa [11] = assay: Potentiation of meropenem-induced antibacterial activity against VIM2 carbapenemase producing multidrug-resistant Pseudomonas aeruginosa 6 clinical isolate assessed as MIC of meropenem at 1:8 meropenem:compound ratio by broth microtiter dilution method; format: functional
# Escherichia coli [12] = assay: Antibacterial activity against VIM4 carbapenemase producing multidrug-resistant Escherichia coli 98 clinical isolate up to 512 mg/L by broth microtiter dilution method; format: functional, organism-based
# Pseudomonas aeruginosa [13] = assay: Potentiation of meropenem-induced antibacterial activity against VIM2 carbapenemase producing multidrug-resistant Pseudomonas aeruginosa 9 clinical isolate at 1:8 meropenem:compound ratio by checkerboard method; format: functional
# Pseudomonas aeruginosa [14] = assay: Potentiation of meropenem-induced antibacterial activity against VIM2 carbapenemase producing multidrug-resistant Pseudomonas aeruginosa 3 clinical isolate assessed as MIC of meropenem at 1:8 meropenem:compound ratio by broth microtiter dilution method; format: functional
# Providencia stuartii [15] = assay: Potentiation of meropenem-induced antibacterial activity against VIM1 carbapenemase producing multidrug-resistant Providencia stuartii 70 clinical isolate at 1:8 meropenem:compound ratio by checkerboard method; format: functional
# [16] = Toxicity in Galleria mellonella larvae assessed as survival rate up to 80 mg/kg measured at 96 hrs; format: organism-based; conditions: in vivo
# Klebsiella oxytoca [17] = assay: Potentiation of meropenem-induced antibacterial activity against VIM4 carbapenemase producing multidrug-resistant Klebsiella oxytoca 126 clinical isolate assessed as MIC of meropenem at 1:8 meropenem:compound ratio by broth microtiter dilution method; format: functional
# Klebsiella pneumoniae [18] = assay: Potentiation of meropenem-induced antibacterial activity against VIM1 carbapenemase producing multidrug-resistant Klebsiella pneumoniae GR54 clinical isolate assessed as MIC of meropenem at 1:8 meropenem:compound ratio by broth microtiter dilution method; format: functional
# Pseudomonas aeruginosa [19] = assay: Antibacterial activity against VIM2 carbapenemase producing multidrug-resistant Pseudomonas aeruginosa 15 clinical isolate up to 512 mg/L by broth microtiter dilution method; format: functional, organism-based
# Pseudomonas aeruginosa [20] = assay: Antibacterial activity against VIM2 carbapenemase producing multidrug-resistant Pseudomonas aeruginosa GR58 clinical isolate up to 512 mg/L by broth microtiter dilution method; format: functional, organism-based
# Pseudomonas aeruginosa [21] = assay: Potentiation of meropenem-induced antibacterial activity against VIM2 carbapenemase producing multidrug-resistant Pseudomonas aeruginosa 9 clinical isolate assessed as MIC of meropenem at 1:8 meropenem:compound ratio by broth microtiter dilution method; format: functional
# Pseudomonas aeruginosa [22] = assay: Potentiation of meropenem-induced antibacterial activity against VIM2 carbapenemase producing multidrug-resistant Pseudomonas aeruginosa 27 clinical isolate assessed as MIC of meropenem at 1:8 meropenem:compound ratio by broth microtiter dilution method; format: functional
# Klebsiella oxytoca [23] = assay: Antibacterial activity against VIM4 carbapenemase producing multidrug-resistant Klebsiella oxytoca 95 clinical isolate up to 512 mg/L by broth microtiter dilution method; format: functional, organism-based
# Escherichia coli [24] = assay: Potentiation of meropenem-induced antibacterial activity against VIM4 carbapenemase producing multidrug-resistant Escherichia coli 98 clinical isolate assessed as MIC of meropenem at 1:8 meropenem:compound ratio by broth microtiter dilution method; format: functional
# Providencia stuartii [25] = assay: Antibacterial activity against VIM1 carbapenemase producing multidrug-resistant Providencia stuartii 70 clinical isolate up to 512 mg/L by broth microtiter dilution method; format: functional, organism-based
# Klebsiella pneumoniae [26] = assay: Potentiation of meropenem-induced antibacterial activity against VIM4 carbapenemase producing multidrug-resistant Klebsiella pneumoniae 120 clinical isolate infected in Galleria mellonella larvae assessed as relative risk of survival at 4.8 mg/kg measured at 96 hrs relative to control; format: functional
# Escherichia coli [27] = assay: Potentiation of meropenem-induced antibacterial activity against VIM4 carbapenemase producing multidrug-resistant Escherichia coli 98 clinical isolate at 1:8 meropenem:compound ratio by checkerboard method; format: functional
# Pseudomonas aeruginosa [28] = assay: Antibacterial activity against VIM2 carbapenemase producing multidrug-resistant Pseudomonas aeruginosa 12 clinical isolate up to 512 mg/L by broth microtiter dilution method; format: functional, organism-based
# Pseudomonas aeruginosa [29] = assay: Antibacterial activity against VIM2 carbapenemase producing multidrug-resistant Pseudomonas aeruginosa 14 clinical isolate up to 512 mg/L by broth microtiter dilution method; format: functional, organism-based
compound,measurement,setting,value
O=C(O)/C(S)=C/c1c(Cl)ccc(Cl)c1Cl,MIC,Pseudomonas aeruginosa [1],16 µg/mL
same,MIC,Klebsiella oxytoca [2],8 µg/mL
same,MIC,Pseudomonas aeruginosa [3],8 µg/mL
same,fractional inhibitory concentration index (FICI),Klebsiella pneumoniae [4],0.09
same,fractional inhibitory concentration index (FICI),Enterobacter cloacae,0.19
same,Activity,Klebsiella pneumoniae [5],inactive
same,MIC,Pseudomonas aeruginosa [6],1 µg/mL
same,MIC,Klebsiella pneumoniae [7],1 µg/mL
same,Activity,Pseudomonas aeruginosa [8],inactive
same,fractional inhibitory concentration index (FICI),Klebsiella oxytoca [9],0.19
same,Activity,Pseudomonas aeruginosa [10],inactive
same,MIC,Pseudomonas aeruginosa [11],16 µg/mL
same,Activity,Escherichia coli [12],inactive
same,fractional inhibitory concentration index (FICI),Pseudomonas aeruginosa [13],0.38
same,MIC,Pseudomonas aeruginosa [14],8 µg/mL
same,fractional inhibitory concentration index (FICI),Providencia stuartii [15],0.14
same,survival at 96 h,[16],100%
same,MIC,Klebsiella oxytoca [17],4 µg/mL
same,MIC,Klebsiella pneumoniae [18],4 µg/mL
same,Activity,Pseudomonas aeruginosa [19],inactive
same,Activity,Pseudomonas aeruginosa [20],inactive
same,MIC,Pseudomonas aeruginosa [21],16 µg/mL
same,MIC,Pseudomonas aeruginosa [22],16 µg/mL
same,Activity,Klebsiella oxytoca [23],inactive
same,MIC,Escherichia coli [24],2 µg/mL
same,Activity,Providencia stuartii [25],inactive
same,fold change (FC),Klebsiella pneumoniae [26],0.7
same,fractional inhibitory concentration index (FICI),Escherichia coli [27],0.16
same,Activity,Pseudomonas aeruginosa [28],inactive
same,Activity,Pseudomonas aeruginosa [29],inactive
